Data on one compound can be found in patent publication US20160166578A1, “METHOD FOR TREATING TYPE I AND TYPE II DIABETES” (PRISM Phama Ltd., priority 2012, published 2016).

Series [1] deals with Wnt signaling pathway. Description: Reporter gene assay (SuperTOPFlash luciferase, STF reporter cell line). The class given is cell-based. The note with it: Homo sapiens; at a concentration of 1 μM; Hek-293 STF reporter cells, LiCl stimulation, 24 hours; read-out: inhibitory activity. As to the method: Screening for inhibitory action of the Wnt signaling pathway was carried out according to the following procedure using an STF reporter cell line (human embryonic kidney cell line Hek-293 stably transfected with the firefly luciferase gene under the control of eight tandem repeats of the SuperTOPFlash reporter element; Cell 116:883-895, 2004).
Growth Medium: Dulbecco's Modified Eagle Medium (DMEM), 10% FBS, Pen-Strep, supplemented with 400 µg/ml G418 antibiotic to maintain selection of SuperTOPFlash driven luciferase gene.
On the day prior to assay, cells were split into a white opaque 96-well plate at 20,000 cells per well in 200 microliters of complete growth medium. The plate was incubated overnight at 37° C., 5% CO2 to allow the cells to attach to the surface.
The next day, the inhibitors were prepared to be tested in complete growth medium, without G418, at 2× the desired final concentration (all conditions are done in duplicate). The existing medium was carefully pipetted from each well using a multiple pipettor. 50 microliters of fresh growth medium (without G148) containing the inhibitor (Compound A) was added to each well. […]
After 24 hours, 100 microliters of BrightGlo reagent (Promega, Madison, Wis.) was added to each well. […] The plate was read using a Packard TopCount (PerkinElmer, Inc.).
On the technique in general: Reporter assays use an easily measured gene product as a stand-in for the process of interest.

The nature of series [2]: Blood glucose levels in human clinical trial (patients with cancer and type II diabetes). The class given is in vivo. The note with it: for blood glucose levels: 7 days continuous IV infusion, one week on and one week off. As to the method: Patients with cancer and type II diabetes were enrolled in a clinical trial (Safety and Efficacy Study in Subjects With Advanced Solid). The efficacy of Compound A for the treatment of diabetes was investigated by measurement of the blood glucose level of the patients. Conditions of patients enrolled in this study are as follows:
(Patient 101), with sigmoid colon cancer and diabetes. Compound A was administered at 40 mg/m^2/day, and Metformin Hydrochloride
(Patient 1103), with colon cancer and diabetes. Compound A was administered at 905 mg/m^2/day, in addition patient was treated with pioglitazone hydrochloride (Actos) and Metformin Hydrochloride.
Compound A administration was 7 days continuous IV infusion. The cycle of administration is one week on and one week off.
In addition to already prescribed drugs (pioglitazone hydrochloride or Metformin Hydrochloride) as basic treatment, Compound A with a defined dose for each patient was intravenously administrated for 7 continuous days followed by a 7-day rest period. This 14 days period with 7-day infusion period and 7-day rest period is defined as one cycle. Basic treatment for diabetes was continuously performed during this period. During the administration period (first, fifth and eighth day of each cycle) or after the administration, blood glucose levels were measured.

A short description of series [3]: Primate study in aged hyperglycemic monkeys (c-peptide, insulin, HbA1c). The class given is in vivo, Macaca fascicularis. The note with it: 8 mg/Kg/Day continuous infusion i.p., 84 days. As to the method: Animals: aged Macaca fascicularis (21 to 27 years old) monkeys that have hyperglycemia, N=3.
Administration: Compound A (8 mg/Kg/Day) administrated by continuous infusion by i.p. from day 152 to 236 (84 days). Biochemical tests: c-peptide, insulin, and HbA1c levels were measured every week.
C-peptide, a byproduct of insulin production that is elevated in hyperglycemia, was measured using ELECSYS c-peptide assay (Roche Diagnostics, Hoffmann-La Roche Ltd.) with electrochemiluminescence assay (ECLIA) readout.
Insulin levels were measured using the E test II IRI, EIA method (TOSOH Corp., Tokyo). Insulin levels are elevated in hyperglycemia.
HbA1c or glycated hemoglobin (hemoglobin A1c) was measured to identify the average glycated hemoglobin, as a measure of plasma glucose concentration, over the previous months prior to the measurement. HbA1c levels are elevated in hyperglycemia. HbA1c was measured using the Nordia N HbA1c assay kit, enzyme method (Sekisui Medical Co., Ltd., Japan).

`C[C@H]1[C@H]2N(C(=O)CN(C)N2C(=O)NCc2ccccc2)[C@@H](Cc2ccc(OP(=O)(O)O)cc2)C(=O)N1Cc1cccc2cccnc12` [Compound A, 4-(((6S,9S,9aS)-1-(benzylcarbamoyl)-2,9-dimethyl-4,7-dioxo-8-(quinolin-8-ylmethyl)octahydro-1H-pyrazino[2,1-c][1,2,4]triazin-6-yl)methyl)phenyl dihydrogen phosphate]: the inhibition at 1 µM in series [1] was more than 50%. Besides, the blood glucose levels entry is given as “blood glucose levels are reduced” in series [2] (Patient 101, 40 mg/m^2/day, with Metformin Hydrochloride, by the end of every cycle (FIG. 1)); “blood glucose levels are reduced” in series [2] (Patient 1103, 905 mg/m^2/day, with pioglitazone hydrochloride and Metformin Hydrochloride, by the end of every cycle (FIG. 2)). Further, the “blood glucose level of patients with type II diabetes not adequately controlled by known drugs” value in series [2] (concomitant use with known drugs for type II diabetes) is “significantly decreased”. Moreover, in series [2] (patients with type II diabetes, concomitant with known drugs for diabetes), the “adverse effects of concomitant use” value was “No adverse effects”. Besides, the c-peptide levels result in series [3] (FIG. 3) was “c-peptide levels fall over time”. Further, the insulin levels result in series [3] (FIG. 4) is listed as “insulin levels fall over time”. Besides, in series [3] (FIG. 5), the “HbA1c levels (ratio of mmol HbA1c to mol hemoglobin)” value is given as “HbA1c levels fall over time”.
